From patent US9351971B2, “Substituted 2,2′-biphenazines for treating diseases” (Eutropics Pharmaceuticals, Inc., priority 2010, dated 2016) come the findings set out here.

Several values for one entry are separate records, joined by “and”; a condition that tells them apart may be missing. Equal entries are not always repeated. Entries after “also recorded” stand apart in the source; their conditions may differ.

Data set [1] in a line: Pharmacokinetics of compound A in the mouse. It is filed as in vivo. To be noted: for plasma clearance: i.p.; for half-life: plasma, ip. On the procedure:
Pharmacokinetic studies were conducted on compound A to assess plasma clearance and distribution in the mouse. Compound A was administered i.p. (as in the xenograft study) at 10 mg/kg.
Pharmacokinetic studies were conducted on compound A to assess plasma clearance and distribution in the mouse. Compounds were administered i.p. (as in the xenograft study) at 19 mg/kg.

The test system of data set [2] is NCI-H929 multiple myeloma cell line. In words: Cell viability MTS assay, NCI-H929. To be noted: Homo sapiens, 48 hours, read-out: EC50, cell killing in NCI-H929. It is filed as cell-based. On the procedure:
The lymphoid derived cell lines DHL-6 and DHL-10 were obtained from Anthony Letai of the Dana Father Cancer Research Institute, Boston, Mass. The […] derived cell line NCP-H929 was obtained irons, the NIH/NCI cell repository. AML-3 cells were obtained from Dr. Michael Andreef (MD Anderson Cancer Center, Houston, Tex.). Cells were grown in RPMI 1640 medium (GIBCO-BRL) supplemented with Pen-strep-glutamine (Gibco 10378) and 5% fetal bovine serum.
Cells were expanded in tissue culture in appropriate media and then subcultured into 96-well plates at a seeding density of 20,000-40,000 cells per well, and cells were treated with one or more compounds that were titrated info appropriate medium with FCS. Cell lines were treated with compound A at concentrations ranging from 25 μM to 25 nM. The BH3-mimetic obatoclax (Nguyen M et al. (2007), Proc. Natl. Acad. Sci. USA 104:19512-19517) was also tested against the SUDHL-6, SUDHL-10, and NCI-H929 cell lines. Cells were treated for 48 hours and scored for viability using the MTS assay (Promega). Growth inhibition was indicated as a percentage of control cell growth. Growth was determined by measuring the A570 (control cells)—A570 (treated cells)/A570 (control cells). EC50 values were calculated using Graphpad Prizm software.

A further data set relates to CCRF-CEM cells. The data set can be described thus: CCRF-CEM leukemia xenograft study in SCID mice. The data set is classed as in vivo, mouse. The conditions noted are these: 60 mg/kg I.P. 5x/week. The method, then: The T Lymphoblastic Leukemic Cell Line CCRF-CEM was purchased from American Type Culture Consortium (ATCC). These cells were maintained in RPMI-1640 medium supplemented with 10% of fetal bovine serum, 2 mM glutamine, and 1 mM sodium pyruvate. The cells were cultured at 37° C. in 95% air/5% CO2 and 100% humidity. Medium in the culture was changed every 48 h and cells were passaged weekly.
For cell implantation to mice, cells were harvested by centrlfugation. Cell pellets were resuspended in PBS and counted using a hemacytometer and Trypan Blue dye to measure the number of viable cells in the suspension. The harvested cells were washed once with PBS and resuspended in serum-free medium at a density of 1×10^7 cells/100 μl.
For this xenograft study, animals were divided into 4 groups of 10 mice each. Groups were treated with test compounds by IP Injection at 60 mg/kg with or vehicle control.
Mice were inoculated with the CCRF-CEM cells (10,000,000 cells) were by tail vein injection. The cell suspensions had the tendency to form clumps. Therefore, during cell inoculation, the cell suspensions had to be mixed well before drawing into the syringe. Gauge 28 needles were used for the injection.
Test articles were dissolved in a mixture of DMSO/Cremophor/water (10:18:72) and administered to the animals in 100 μl aliquots 5× per week beginning 7 days after cells were transplanted into mice. Control dosage was performed under the same schedule.
Throughout the entire study, clinical observations were conducted daily for signs of leukemia development, including lethargy, ruffled fur, lack of responsiveness to stimuli, weight loss, and becoming moribund. On Day 21 after cell inoculation, blood samples were drawn from all groups. The white blood cells of all the blood samples were measured with a Nucleo Counter (ChemMetec, Denmark). […]
After 14 days of treatment, blood samples were taken from all the mice via orbital bleeding while mice were anesthetized using isoflurane inhalation. […] The number of white blood cells was then counted by standard methods.

The nature of data set [3]: Dose escalation study in SCID mice. The data set is classed as in vivo. To be noted: 60 mg/kg. On the procedure: Compound A was tested in SCID mice at SRI International, Menlo Park, Calif. A dose escalation study determined that that the high dose of 60 mg/kg was well-tolerated and could be safely used for the xenograft study for all 3 test articles.
The target in a further data set is T1, Mcl-1 (Homo sapiens, UniProt Q07820).
T1 construct: made in house; host or cells: E. coli
The data set can be described thus: Fluorescence polarization assay, Bim BH3 peptide binding to GST-Mcl-1. To be noted: fluorescence polarization, Bim-BH3-FITC peptide, GST-Mcl-1; read-out: IC50, inhibition of Bim-BH3 peptide binding to Mcl-1. The source says:
(§1) A nineteen amino acid peptide, corresponding to the BH3 domain of Bim, with the sequence FITC-GGGIAQELRRIGDEFNAY (SEQ ID NO: 1) was labeled with the tluorophore FITC according to the manufacturer's instructions (Molecular Probes, Eugene, Oreg.). This sequence was identified as being able to bind to purified Bcl-xL protein (Sattler et al. (1997) Science 275(5302): 983-86) and to have biological activity in cells (Holinger et al. J. Biol. Chem. 274; 13298-1330).
(§2) In addition, recombinant GST -Mcl-1 and GST-Bcl-xL fusion proteins were generated in E.coli and purified using glutathione-sepharose beads using conventional techniques known to those skilled in the fields of biochemistry and molecular biology, (methods for preparation are described in Strategies for Protein Purification and Characterization, Marshak, D, Kadonga, J, Burgess R, Knuth, M, Brennan, W, Sue-Hwa, L, CSH press, Cold Spring Harbor, N.Y.). Binding of the recombinant proteins to the fluorescent Bim BH3 domain was confirmed by titration of increasing concentrations of the recombinant proteins against a constant amount of labeled Bim peptide (16.65 nM). Quantitation of binding was accomplished by FP assay with mP measurements made on the Analyst-GT reader (Molecular Devices, Sunnyvale, Calif.).
Further, the ability of compound A to disrupt the interaction between the fluorescent Bim BH3 peptide and the two fusion proteins was assessed using a fluorescence polarization assay. The Bim peptide (in solution at 4 nano-Molar) and either GST-Mcl-1 (in solution at 12.5 nM) or GST-Bcl-xL (in solution at 11.8 nM) were first combined together in phosphate buttered saline buffer, and then the compound solution in DMSO was added to final concentrations ranging from 10 μM to 0.1 nM). Normally the unbound Bim polypeptide results in polarization of 5 mP units. Upon binding of the GST-Bcl-xL and GST-Mcl-1 fusion protein, polarization increased to 100 mP units.
Experiments are performed using the fluorescence polarization assay as described in Example 2. Either Bcl-xL or Mcl-1 fusion proteins were titrated and maximum mp shift indicate binding concentrations for drug titration studies, as described in Example 2. Compound II-19, was titrated from 10 μM to 0.1 nM in 2 fold serial dilution into the peptide/protein solution. The IC50 for blocking each BH3 peptide from Mcl-1 are assessed using FP, as described in Example 2.
Experiments are performed using the fluorescence polarization assay as described in Example 2. Either GST-Bcl-xL or GST-Mcl-1 fusion proteins were titrated and maximum mp shift indicate binding concentrations for drug titration studies, as described in Example 2. Compound II-20, was titrated from 10 μM to 0.1 nM in 2-fold serial dilution into the peptide/protein solution. The IC50 for blocking each BH3 peptide from Mcl-1 are assessed using FP, as described in Example 2.

Another data set can be described thus: Microsome stability. It is filed as in vitro ADME.
For another data set, the target named is T2, Bcl-xL (Homo sapiens, UniProt Q07817).
T2 construct: made in house; host or cells: E. coli
In words: Fluorescence polarization assay, Bim BH3 peptide binding to GST-Bcl-xL. To be noted: Bim-BH3-FITC peptide, read-out: IC50, inhibition of Bim-BH3 peptide binding to Bcl-xL.
Excerpt: as §1, §2
Further, the ability of compound A to disrupt the interaction between the fluorescent Bim BH3 peptide and the two fusion proteins was assessed using a fluorescence polarization assay. […]
(§3) Experiments are performed using the fluorescence polarization assay as described in Example 2. […] The IC50 for blocking each BH3 peptide from Mcl-1 are assessed using FP, as described in Example 2.
as §3

T1 sequence (Q07820 whole entry): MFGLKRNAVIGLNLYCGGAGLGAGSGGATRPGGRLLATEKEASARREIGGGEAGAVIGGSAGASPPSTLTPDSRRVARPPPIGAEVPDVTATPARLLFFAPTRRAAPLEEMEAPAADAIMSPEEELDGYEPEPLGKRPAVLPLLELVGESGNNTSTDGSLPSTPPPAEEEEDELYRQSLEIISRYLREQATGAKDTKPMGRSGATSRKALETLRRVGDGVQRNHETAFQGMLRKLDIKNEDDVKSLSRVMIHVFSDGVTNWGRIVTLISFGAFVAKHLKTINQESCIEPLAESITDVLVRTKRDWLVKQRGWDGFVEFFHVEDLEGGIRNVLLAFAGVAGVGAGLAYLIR
T2 sequence (Q07817 whole entry): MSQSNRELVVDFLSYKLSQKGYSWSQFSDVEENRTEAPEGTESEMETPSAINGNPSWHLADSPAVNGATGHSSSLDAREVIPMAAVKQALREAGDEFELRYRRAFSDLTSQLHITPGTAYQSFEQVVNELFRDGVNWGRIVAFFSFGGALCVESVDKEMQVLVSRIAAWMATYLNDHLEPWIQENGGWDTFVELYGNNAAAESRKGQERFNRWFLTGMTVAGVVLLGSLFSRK

Regarding `COc1cc(-c2ccc(Nc3ccccc3C(=O)O)c(OC)c2)ccc1Nc1ccccc1C(=O)O` [Compound A, redoxal], the plasma clearance in data set [1] (10 mg/kg) and in data set [1] (19 mg/kg as printed) was 1.3 mL/min/kg throughout. Moreover, the half-life in data set [1] (10 mg/kg) and in data set [1] (19 mg/kg as printed) was 2.1 h in each case. Also, in data set [2], the EC50 amounted to 1000 nM. Also, in the data set on CCRF-CEM cells, the “survival outcome vs vehicle control” value is recorded as “statistically significant; also recorded: significantly improved”. In addition, the “white blood cells vs vehicle control” value with CCRF-CEM cells (after 14 days of treatment (Day 21), P<0.02 Students' t test) was “significantly reduced”. Further, the “mice still alive on Day 31” value in the data set on CCRF-CEM cells (all vehicle mice died by Day 31) is listed as 60%. For the same compound, the “tolerability of the high dose” value in data set [3] was “well-tolerated”. Also, the 50% inhibitory concentration (IC50) at Mcl-1 is < 500 nM and 480 nM; at Bcl-xL it was above 16000 nM. Moreover, in “Microsome stability”, the microsome stability entry is “excellent”.
